Results reported in patent US6737383B1, “Herbicidal oxadiazolidines” (priority 1999, dated 2004).

Legend:
purple nutsedge = test: Test B pre/postemergence purple nutsedge; type: in vivo, Cyperus rotundus
Method in brief: (§1)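 Response is a visual 0-to-10 score relative to untreated plants, where 0 means no effect and 10 means complete control, taken twelve to sixteen days after application. Treatments went onto soil at planting and onto foliage of 1- to 4-leaf plants, using a surfactant-containing non-phytotoxic solvent.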

duck salad = test: Test B flood test duck salad; type: in vivo, Heteranthera limosa
Method in brief: (§2)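 Flood test on plants grown to the 2-leaf stage; treated plants kept in greenhouse twelve to sixteen days, then visually rated against controls on a 0 (no effect) to 10 (complete control) scale.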

sugar beet = test: Test B pre/postemergence sugar beet; type: in vivo, Beta vulgaris; conditions: for Plant response rating, Sugarbeets: Rate 250 g/ha
Method in brief: as §1

smallflower flatsedge = test: Test B flood test smallflower flatsedge; type: in vivo, Cyperus difformis
Method in brief: as §2

velvetleaf = test: Test B pre/postemergence velvetleaf; type: in vivo, Abutilon theophrasti; conditions: for Plant response rating, Velvetleaf: Rate 250 g/ha
Method in brief: as §1

giant foxtail = test: Test B pre/postemergence giant foxtail; type: in vivo, Setaria faberii
Method in brief: as §1

wild oat = test: Test B pre/postemergence wild oat; type: in vivo, Avena fatua; conditions: for Plant response rating, Wild oats: Rate 250 g/ha
Method in brief: as §1

soybean = test: Test B pre/postemergence soybean; type: in vivo, Glycine max
Method in brief: as §1

surinam grass = test: Test B pre/postemergence surinam grass; type: in vivo, Brachiaria decumbens
Method in brief: as §1

cocklebur = test: Test B pre/postemergence cocklebur; type: in vivo, Xanthium strumarium
Method in brief: as §1

pigweed = test: Test B pre/postemergence pigweed; type: in vivo, Amaranthus retroflexus
Method in brief: as §1

bedstraw = test: Test B pre/postemergence bedstraw; type: in vivo, Galium aparine
Method in brief: as §1

rape = test: Test B pre/postemergence rape; type: in vivo, Brassica napus
Method in brief: as §1

corn = test: Test B pre/postemergence corn; type: in vivo, Zea mays
Method in brief: as §1

wheat = test: Test B pre/postemergence wheat; type: in vivo, Triticum aestivum; conditions: for Plant response rating, Wheat: Rate 250 g/ha
Method in brief: as §1

rice = test: Test B flood test rice; type: in vivo, Oryza sativa
Method in brief: as §2

[1] = Postemergence, Rate 125 g/ha, scale of 0 to 10 where 0 is no effect and 10 is complete control
[2] = Postemergence, Rate 250 g/ha, scale 0 to 10, 0 no effect, 10 complete control
[3] = Preemergence, Rate 62 g/ha, scale 0 to 10 (0 no effect, 10 complete control)
[4] = Preemergence, Rate 125 g/ha, scale 0 to 10 (0 no effect, 10 complete control)
[5] = Preemergence, Rate 250 g/ha, scale of 0 to 10 where 0 is no effect and 10 is complete control
[6] = Preemergence, Rate 500 g/ha, scale 0 to 10 (0 no effect, 10 complete control)
[7] = Rate 62 g/ha, Postemergence, scale of 0 to 10 where 0 is no effect and 10 is complete control
[8] = Rate 500 g/ha, Postemergence, scale 0 to 10, 0 no effect, 10 complete control
[9] = Postemergence (flood test species), Rate 125 g/ha, scale of 0 to 10 where 0 is no effect and 10 is complete control
[10] = Rate 62 g/ha, Postemergence section, flood test species, scale of 0 to 10 where 0 is no effect and 10 is complete control
[11] = Rate 250 g/ha, headed Pre-emergence (flood test species), scale 0 to 10 (0 no effect, 10 complete control)
[12] = Rate 500 g/ha, headed Pre-emergence (flood test species), scale 0 to 10 (0 no effect, 10 complete control)
[13] = Rate 500 g/ha, listed under Postemergence (flood test species), scale 0 to 10, 0 no effect, 10 complete control
[14] = Rate 1000 g/ha, Pre-emergence (as headed), scale 0 to 10
[15] = Rate 2000 g/ha, Pre-emergence (as headed), scale 0 to 10
[16] = Preemergence, Rate 125 g/ha, 0 is no effect, 10 is complete control
[17] = Preemergence, scale of 0 to 10 where 0 is no effect and 10 is complete control
[18] = Postemergence, scale 0 to 10, 0 is no effect, 10 is complete control
[19] = Rate 250 g/ha, Postemergence (flood test), scale 0 to 10, 0 is no effect, 10 is complete control
[20] = Rate 250 g/ha, Postemergence, scale 0 to 10, 0 is no effect, 10 is complete control
[21] = Postemergence, Rate 62 g/ha, scale 0 to 10, 0 is no effect, 10 is complete control
[22] = Rate 125 g/ha, Postemergence, scale 0 to 10, 0 no effect, 10 complete control

SMILES: CCn1c(=O)on(C(=O)N(c2ccc(F)cc2F)C(C)C)c1=O [Compound 116]
- Nutsedge plant response rating (purple nutsedge; [1]): 7
- Nutsedge plant response rating (purple nutsedge; [2]): 8
- Nutsedge plant response rating (purple nutsedge; [3]): 0
- Plant response rating, Nutsedge (purple nutsedge; [4]): 0
- Plant response rating, Nutsedge (purple nutsedge; [5]): 0
- Nutsedge plant response rating (purple nutsedge; [6]): 0
- Nutsedge plant response rating (purple nutsedge; [7]): 5
- Nutsedge plant response rating (purple nutsedge; [8]): 9
- Ducksalad plant response rating (duck salad; [9]): 0
- Ducksalad plant response rating (duck salad; [10]): 0
- Ducksalad plant response rating (duck salad; [11]): 0
- Plant response rating, Ducksalad (duck salad; [12]): 0
- Ducksalad plant response rating (duck salad; [13]): 0
- Ducksalad plant response rating (duck salad; [14]): 1
- Ducksalad plant response rating (duck salad; [15]): 8
- Ducksalad plant response rating (duck salad; flood test, listed under Postemergence, Rate 250 g/ha, scale 0 to 10, 0 no effect, 10 complete control): 0
- Sugarbeets plant response rating (sugar beet; [1]): 3
- Sugarbeets plant response rating (sugar beet; [3]): 9
- Sugarbeets plant response rating (0 to 10 scale) (sugar beet; [16]): 10
- Plant response rating, Sugarbeets (sugar beet; [17]): 10
- Sugarbeets plant response rating (sugar beet; [6]): 10
- Sugarbeets plant response rating (sugar beet; [7]): 2
- Plant response rating, Sugarbeets (sugar beet; [18]): 8
- Sugarbeets plant response rating (sugar beet; [8]): 8
- S. Flatsedge plant response rating (smallflower flatsedge; [9]): 0
- S. Flatsedge plant response rating (smallflower flatsedge; Pre-emergence, Rate 1000 g/ha, scale 0 to 10 (0 no effect, 10 complete control)): 0
- S. Flatsedge plant response rating (smallflower flatsedge; [10]): 0
- Plant response rating, S. Flatsedge (smallflower flatsedge; [19]): 0
- S. Flatsedge plant response rating (smallflower flatsedge; [11]): 0
- Plant response rating, S. Flatsedge (smallflower flatsedge; [12]): 0
- S. Flatsedge plant response rating (smallflower flatsedge; [13]): 0
- S. Flatsedge plant response rating (smallflower flatsedge; [15]): 9
- Velvetleaf plant response rating (velvetleaf; [1]): 4
- Velvetleaf plant response rating (velvetleaf; [3]): 8
- Velvetleaf plant response rating (0 to 10 scale) (velvetleaf; [16]): 9
- Plant response rating, Velvetleaf (velvetleaf; [17]): 10
- Velvetleaf plant response rating (velvetleaf; [6]): 10
- Velvetleaf plant response rating (velvetleaf; [7]): 4
- Plant response rating, Velvetleaf (velvetleaf; [18]): 7
- Velvetleaf plant response rating (velvetleaf; [8]): 8
- Giant foxtail plant response rating (giant foxtail; [1]): 9
- Giant foxtail plant response rating (giant foxtail; [2]): 9
- Giant foxtail plant response rating (giant foxtail; [3]): 10
- Plant response rating, Giant foxtail (giant foxtail; [4]): 10
- Plant response rating, Giant foxtail (giant foxtail; [5]): 10
- Giant foxtail plant response rating (giant foxtail; [6]): 10
- Giant foxtail plant response rating (giant foxtail; [7]): 9
- Giant foxtail plant response rating (giant foxtail; [8]): 9
- Wild oats plant response rating (wild oat; [1]): 7
- Wild oats plant response rating (wild oat; [3]): 7
- Wild oats plant response rating (0 to 10 scale) (wild oat; [16]): 7
- Plant response rating, Wild oats (wild oat; [17]): 10
- Wild oats plant response rating (wild oat; [6]): 10
- Wild oats plant response rating (wild oat; [7]): 3
- Plant response rating, Wild oats (wild oat; [18]): 7
- Wild oats plant response rating (wild oat; [8]): 8
- Soybean plant response rating (soybean; [1]): 6
- Soybean plant response rating (soybean; [3]): 0
- Plant response rating, Soybean (soybean; [4]): 7
- Plant response rating, Soybean (soybean; [5]): 9
- Soybean plant response rating (soybean; [6]): 9
- Soybean plant response rating (soybean; [7]): 3
- Plant response rating, Soybean (soybean; [20]): 6
- Soybean plant response rating (soybean; [8]): 8
- B. signalgrass plant response rating (surinam grass; [21]): 8
- B. signalgrass plant response rating (surinam grass; [2]): 9
- B. signalgrass plant response rating (surinam grass; [3]): 4
- Plant response rating, B. signalgrass (surinam grass; [4]): 8
- Plant response rating, B. signalgrass (surinam grass; [5]): 10
- B. signalgrass plant response rating (surinam grass; [6]): 10
- B. signalgrass plant response rating (surinam grass; [22]): 9
- B. signalgrass plant response rating (surinam grass; Rate 500 g/ha, Postemergence, scale of 0 to 10 where 0 is no effect and 10 is complete control): 9
- Cocklebur plant response rating (cocklebur; [1]): 0
- Cocklebur plant response rating (cocklebur; [2]): 3
- Cocklebur plant response rating (cocklebur; [3]): 0
- Plant response rating, Cocklebur (cocklebur; [4]): 0
- Plant response rating, Cocklebur (cocklebur; [5]): 0
- Cocklebur plant response rating (cocklebur; [6]): 5
- Cocklebur plant response rating (cocklebur; [7]): 0
- Cocklebur plant response rating (cocklebur; [8]): 5
- Redroot pigweed plant response rating (pigweed; [1]): 0
- Redroot pigweed plant response rating (pigweed; [3]): 10
- Plant response rating, Redroot pigweed (pigweed; [4]): 10
- Plant response rating, Redroot pigweed (pigweed; [5]): 10
- Redroot pigweed plant response rating (pigweed; [6]): 10
- Redroot pigweed plant response rating (pigweed; [7]): 0
- Plant response rating, Redroot pigweed (pigweed; [20]): 8
- Redroot pigweed plant response rating (pigweed; [8]): 8
- Bedstraw plant response rating (bedstraw; [21]): 0
- Bedstraw plant response rating (bedstraw; [2]): 9
- Bedstraw plant response rating (bedstraw; [3]): 2
- Plant response rating, Bedstraw (bedstraw; [4]): 8
- Plant response rating, Bedstraw (bedstraw; [5]): 9
- Bedstraw plant response rating (bedstraw; [6]): 9
- Bedstraw plant response rating (bedstraw; [22]): 6
- Rape plant response rating (rape; [1]): 0
- Rape plant response rating (rape; [2]): 8
- Rape plant response rating (rape; [3]): 6
- Plant response rating, Rape (rape; [4]): 9
- Plant response rating, Rape (rape; [5]): 10
- Rape plant response rating (rape; [6]): 10
- Rape plant response rating (rape; [7]): 0
- Rape plant response rating (rape; [8]): 9
- Corn plant response rating (corn; [1]): 0
- Corn plant response rating (corn; [2]): 2
- Corn plant response rating (corn; [3]): 0
- Plant response rating, Corn (corn; [4]): 2
- Plant response rating, Corn (corn; [5]): 6
- Corn plant response rating (corn; [6]): 9
- Corn plant response rating (corn; [7]): 0
- Corn plant response rating (corn; [8]): 7
- Wheat plant response rating (wheat; [1]): 6
- Wheat plant response rating (wheat; [3]): 3
- Wheat plant response rating (0 to 10 scale) (wheat; [16]): 5
- Plant response rating, Wheat (wheat; [17]): 8
- Wheat plant response rating (wheat; [6]): 8
- Wheat plant response rating (wheat; [7]): 0
- Plant response rating, Wheat (wheat; [18]): 7
- Wheat plant response rating (wheat; [8]): 8
- Rice plant response rating (rice; [9]): 0
- Rice plant response rating (rice; [10]): 0
- Plant response rating, Rice (rice; [19]): 0
- Rice plant response rating (rice; [11]): 0
- Plant response rating, Rice (rice; [12]): 0
- Rice plant response rating (rice; [13]): 0
- Rice plant response rating (rice; [14]): 0
- Rice plant response rating (rice; [15]): 4
